From ChEMBL document CHEMBL3217442, “Synthesis and bioevaluation of aryl hydroxamates distinguishing between NAD+ and ATP-dependent DNA ligases” (Medchemcomm, 2012)
In brackets after ≈: the same amount, converted by molar mass. Activity calls are given as the source filed them. The rule behind the calls is not given here.

tested on: Escherichia coli; assay: microbe, parasite or virus in culture; assay type: functional; settings: GR501, 20 h

SMILES	MIC [µg/mL]
C=CCOc1cc(OCc2ccc(Br)cc2)ccc1C(=O)NO	800 (≈ 2120 µM)
O=C(NO)c1ccccc1OCC(O)Cn1cc(-c2ccccc2)nn1 (centres undefined)	18 (≈ 50.8 µM)
C=CCOc1ccc(OCc2ccc(Br)cc2)cc1C(=O)NO	800 (≈ 2120 µM)
C=CCOc1ccc(OCc2cc(Cl)ccc2Cl)cc1C(=O)NO	400 (≈ 1090 µM)
C=CCOc1ccc(C(=O)NO)c(OCC=C)c1	400 (≈ 1600 µM)
O=C(NO)c1ccc2ccccc2c1OCc1ccc(Cl)c(Cl)c1	> 200
CCCCCCOc1c(C(=O)NO)ccc2ccccc12	> 200
C=CCOc1ccc(OCc2ccccc2)cc1C(=O)NO	800 (≈ 2670 µM)
C#CCOc1ccc(OCC=C)c(C(=O)NO)c1	400 (≈ 1620 µM)
C=CCOc1ccccc1C(=O)NO	10 (≈ 51.8 µM)
C=CCOc1ccc(OCC=C)c(C(=O)NO)c1	150 (≈ 602 µM)

tested on: Escherichia coli; assay: not given; settings: not given

SMILES	MIC
O=C(NO)c1ccccc1OCc1ccc(Cl)c(Cl)c1	inactive
O=C(NO)c1ccc2ccccc2c1OCc1cccc(Cl)c1	inactive
C=CCOc1cc(OCc2cc(Cl)ccc2Cl)ccc1C(=O)NO	inactive
C=CCOc1cccc(C(=O)NO)c1OCC=C	inactive
O=C(NO)c1ccccc1OCc1cccc(Cl)c1	inactive
C=CCOc1c(OCc2ccccc2)cccc1C(=O)NO	inactive

tested on: Escherichia coli; assay: microbe, parasite or virus in culture; assay type: functional; settings: GR501, 20 h; remark: another data set of the same source

SMILES	MIC [µg/mL]
O=C(NO)c1ccccc1OCC(O)Cn1cc(-c2ccccc2)nn1 (centres undefined)	1 (≈ 2.82 µM)
C=CCOc1ccccc1C(=O)NO	0.5 (≈ 2.59 µM)
